{"source": "patent US20260207585A1", "about": "“METHODS AND COMPOSITIONS FOR THE TREATMENT OF PARKINSON'S DISEASE, HUNTINGTON'S DISEASE, AMYOTROPHIC LATERAL SCLEROSIS, AND LEARNING DISORDERS” (Cedars-Sinai Medical Center, priority 2022, published 2026)", "key": {"ASH1L": {"target": "ASH1L (Homo sapiens, UniProt Q9NR48)", "assay": "Methyltransferase inhibition panel: ASH1L", "format": "biochemical", "experimental": "(§1) The ability of ETP69 to inhibit methyltransferases was tested."}, "EZH2(Y641F) Complex": {"target": "EZH2(Y641F) Complex (Homo sapiens, UniProt Q15910, Y641F)", "sequence (Q15910 whole entry Y641F)": "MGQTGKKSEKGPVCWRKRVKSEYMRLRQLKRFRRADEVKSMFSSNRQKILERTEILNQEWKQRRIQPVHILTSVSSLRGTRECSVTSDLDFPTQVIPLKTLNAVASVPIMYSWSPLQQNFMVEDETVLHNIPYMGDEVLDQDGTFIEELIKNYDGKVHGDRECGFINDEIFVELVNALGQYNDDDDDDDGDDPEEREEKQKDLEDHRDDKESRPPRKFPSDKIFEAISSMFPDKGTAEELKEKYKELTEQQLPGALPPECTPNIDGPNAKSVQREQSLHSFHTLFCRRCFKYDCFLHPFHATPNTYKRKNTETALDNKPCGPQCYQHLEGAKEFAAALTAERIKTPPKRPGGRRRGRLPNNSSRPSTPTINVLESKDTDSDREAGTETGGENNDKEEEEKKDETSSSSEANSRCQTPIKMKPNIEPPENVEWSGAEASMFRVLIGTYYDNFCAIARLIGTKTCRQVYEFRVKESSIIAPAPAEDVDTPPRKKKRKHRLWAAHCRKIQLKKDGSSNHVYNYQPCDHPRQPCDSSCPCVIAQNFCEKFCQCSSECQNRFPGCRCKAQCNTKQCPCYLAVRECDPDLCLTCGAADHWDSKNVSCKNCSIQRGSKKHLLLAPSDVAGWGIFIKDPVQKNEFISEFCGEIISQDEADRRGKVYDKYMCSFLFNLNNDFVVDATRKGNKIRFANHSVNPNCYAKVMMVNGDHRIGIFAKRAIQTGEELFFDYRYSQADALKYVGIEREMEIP", "sequence (O75530 whole entry partner)": "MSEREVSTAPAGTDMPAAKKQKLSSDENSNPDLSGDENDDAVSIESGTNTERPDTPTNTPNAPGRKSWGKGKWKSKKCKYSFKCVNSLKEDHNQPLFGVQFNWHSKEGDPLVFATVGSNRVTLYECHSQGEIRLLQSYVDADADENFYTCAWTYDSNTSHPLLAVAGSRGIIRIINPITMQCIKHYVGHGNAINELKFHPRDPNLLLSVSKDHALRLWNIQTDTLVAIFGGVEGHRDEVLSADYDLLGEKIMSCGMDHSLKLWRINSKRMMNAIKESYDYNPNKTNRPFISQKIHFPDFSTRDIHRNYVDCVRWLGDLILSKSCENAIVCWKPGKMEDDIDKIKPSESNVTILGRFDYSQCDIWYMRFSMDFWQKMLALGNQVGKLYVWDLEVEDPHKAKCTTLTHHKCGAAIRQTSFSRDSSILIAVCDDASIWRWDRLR", "sequence (Q15022 whole entry partner)": "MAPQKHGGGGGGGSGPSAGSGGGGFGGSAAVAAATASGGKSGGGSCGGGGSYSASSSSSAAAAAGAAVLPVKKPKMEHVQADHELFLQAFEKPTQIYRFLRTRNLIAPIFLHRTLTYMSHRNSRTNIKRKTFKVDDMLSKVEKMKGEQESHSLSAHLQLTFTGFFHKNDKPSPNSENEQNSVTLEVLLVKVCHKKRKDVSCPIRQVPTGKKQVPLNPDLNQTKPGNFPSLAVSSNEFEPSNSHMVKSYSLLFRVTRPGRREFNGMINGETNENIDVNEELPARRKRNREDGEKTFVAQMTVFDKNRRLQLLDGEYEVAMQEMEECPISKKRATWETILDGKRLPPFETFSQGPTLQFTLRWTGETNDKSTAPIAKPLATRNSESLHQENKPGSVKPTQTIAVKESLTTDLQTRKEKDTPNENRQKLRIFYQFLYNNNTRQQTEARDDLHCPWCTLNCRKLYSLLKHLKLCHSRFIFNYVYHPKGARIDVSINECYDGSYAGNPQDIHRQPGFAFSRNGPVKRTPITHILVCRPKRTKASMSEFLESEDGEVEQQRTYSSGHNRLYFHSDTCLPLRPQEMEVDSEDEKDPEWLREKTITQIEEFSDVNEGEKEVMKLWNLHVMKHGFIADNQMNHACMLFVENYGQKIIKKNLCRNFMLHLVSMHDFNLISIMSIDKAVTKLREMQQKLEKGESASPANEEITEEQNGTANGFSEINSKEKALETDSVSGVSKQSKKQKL", "sequence (Q09028 whole entry partner)": "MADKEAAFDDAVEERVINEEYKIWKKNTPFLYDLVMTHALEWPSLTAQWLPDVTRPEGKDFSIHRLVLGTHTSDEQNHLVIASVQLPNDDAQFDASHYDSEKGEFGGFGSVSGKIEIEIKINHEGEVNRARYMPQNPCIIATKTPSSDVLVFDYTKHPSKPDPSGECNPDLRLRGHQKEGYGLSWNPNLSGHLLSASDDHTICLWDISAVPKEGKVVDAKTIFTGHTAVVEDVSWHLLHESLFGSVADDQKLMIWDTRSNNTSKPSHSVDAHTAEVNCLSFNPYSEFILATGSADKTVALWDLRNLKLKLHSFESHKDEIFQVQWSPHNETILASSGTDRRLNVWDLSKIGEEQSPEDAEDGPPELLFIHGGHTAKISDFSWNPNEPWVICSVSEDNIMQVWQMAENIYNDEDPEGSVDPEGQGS", "sequence (Q6ZN18 whole entry partner)": "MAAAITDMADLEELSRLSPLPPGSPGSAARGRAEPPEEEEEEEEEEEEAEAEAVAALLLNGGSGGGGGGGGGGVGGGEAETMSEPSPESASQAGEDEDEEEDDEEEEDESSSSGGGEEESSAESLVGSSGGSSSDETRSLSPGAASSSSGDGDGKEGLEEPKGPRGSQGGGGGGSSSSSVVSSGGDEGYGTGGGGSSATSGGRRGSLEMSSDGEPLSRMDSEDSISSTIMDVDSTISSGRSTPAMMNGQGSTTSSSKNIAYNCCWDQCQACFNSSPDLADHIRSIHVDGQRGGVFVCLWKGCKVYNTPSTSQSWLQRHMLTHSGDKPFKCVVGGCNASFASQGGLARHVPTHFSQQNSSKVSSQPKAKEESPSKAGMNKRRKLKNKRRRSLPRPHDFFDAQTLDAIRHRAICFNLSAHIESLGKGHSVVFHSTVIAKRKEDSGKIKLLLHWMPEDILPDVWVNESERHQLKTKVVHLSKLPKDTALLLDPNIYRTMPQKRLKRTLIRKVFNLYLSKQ", "assay": "Methyltransferase inhibition panel: EZH2(Y641F) Complex", "format": "biochemical", "conditions": "NT1721 20 μM; substrate Core Histone 0.05 mg/mL", "experimental": "as §1"}, "NSD2 (E1099K)": {"target": "T1, NSD2 (E1099K) (Homo sapiens, UniProt O96028, E1099K)", "T1 sequence (O96028 1-1365 E1099K)": "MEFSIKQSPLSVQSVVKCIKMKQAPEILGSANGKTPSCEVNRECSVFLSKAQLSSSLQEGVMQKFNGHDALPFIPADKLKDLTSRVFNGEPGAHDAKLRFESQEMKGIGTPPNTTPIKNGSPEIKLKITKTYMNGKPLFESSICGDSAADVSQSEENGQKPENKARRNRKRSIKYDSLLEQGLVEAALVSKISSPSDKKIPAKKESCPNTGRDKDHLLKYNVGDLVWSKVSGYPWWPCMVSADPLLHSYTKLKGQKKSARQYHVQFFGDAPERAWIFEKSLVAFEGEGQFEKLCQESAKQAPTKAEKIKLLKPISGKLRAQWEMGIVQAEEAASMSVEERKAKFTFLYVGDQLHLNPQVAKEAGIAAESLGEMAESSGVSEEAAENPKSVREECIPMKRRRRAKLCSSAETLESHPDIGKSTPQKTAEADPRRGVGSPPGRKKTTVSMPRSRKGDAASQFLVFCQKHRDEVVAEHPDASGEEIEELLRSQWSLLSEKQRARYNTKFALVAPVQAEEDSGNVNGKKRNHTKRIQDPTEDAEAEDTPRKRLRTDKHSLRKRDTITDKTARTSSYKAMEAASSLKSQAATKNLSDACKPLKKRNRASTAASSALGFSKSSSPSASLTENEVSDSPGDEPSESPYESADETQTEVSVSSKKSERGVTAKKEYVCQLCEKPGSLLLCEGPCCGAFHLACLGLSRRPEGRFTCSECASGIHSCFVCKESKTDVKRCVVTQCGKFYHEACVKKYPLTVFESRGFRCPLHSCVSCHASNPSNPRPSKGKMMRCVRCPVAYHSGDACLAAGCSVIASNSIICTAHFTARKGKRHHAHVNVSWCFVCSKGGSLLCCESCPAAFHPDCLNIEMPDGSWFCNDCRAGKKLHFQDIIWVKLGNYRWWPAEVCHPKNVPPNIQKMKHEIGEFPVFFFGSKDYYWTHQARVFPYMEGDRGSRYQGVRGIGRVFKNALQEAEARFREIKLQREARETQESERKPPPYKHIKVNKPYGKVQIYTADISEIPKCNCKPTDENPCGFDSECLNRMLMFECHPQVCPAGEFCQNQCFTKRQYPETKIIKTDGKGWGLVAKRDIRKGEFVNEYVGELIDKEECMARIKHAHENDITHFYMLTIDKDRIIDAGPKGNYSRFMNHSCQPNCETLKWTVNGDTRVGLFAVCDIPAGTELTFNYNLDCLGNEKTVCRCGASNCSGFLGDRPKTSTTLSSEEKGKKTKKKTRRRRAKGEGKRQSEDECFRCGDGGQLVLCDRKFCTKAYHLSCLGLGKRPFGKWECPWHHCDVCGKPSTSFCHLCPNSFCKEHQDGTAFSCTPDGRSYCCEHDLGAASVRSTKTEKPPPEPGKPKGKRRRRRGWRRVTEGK", "assay": "Methyltransferase inhibition panel: NSD2 (E1099K)", "format": "biochemical", "experimental": "as §1"}, "6E10": {"tested_on": "6E10", "assay": "6E10 staining of brain sections", "format": "in vivo", "conditions": "AD+ mice; 4 and 15 days", "excerpt": "ETP69 administration reduced AD-related brain pathology (FIGS. 9A-9C). Brain sections were stained for H3K9me3, 6E10 and GFAP."}, "[1]": {"tested_on": "soluble fraction of brain homogenates", "assay": "Mass spectrometry proteomics of brain homogenates with IPA", "format": "in vivo, mice", "experimental": "The results included levodopa (L-dopa), a naturally occurring product that is also a drug for the management of Parkinson's motor symptoms.\nMass spectrometry (MS) analysis on the soluble fraction of brain homogenates extracted from the […] WT and neurodegenerative (AD) mice cohort was performed (DMSO-treated WT mice: n=8; ETP69-treated WT mice: n=7; DMSO-treated AD^+ mice: n=6; ETP69-treated AD^+ n=6).\nThe effects of ETP69 on the molecular pathways related to neuroprotection and cognitive function was assessed."}, "[2]": {"conditions": "NT1721 20 μM, substrate Nucleosomes 0.05 mg/mL"}}, "note": "Read-outs that look alike come from different tables or passages of the source.", "data": [{"smiles": "CN1C(=O)[C@@]23C[C@](C)(C#N)[C@H](c4ccc5c(c4)OCO5)N2C(=O)[C@]1(C)SS3", "note": "(racemic) [ETP69, Rac-(3S,6S,7S,8aS)-6-(benzo[d][1,3]dioxol-5-yl)-2,3,7-trimethyl-1,4-dioxohexahydro-6H-3,8a-epidithiopyrrolo[1,2-a]pyrazine-7-carbonitrile]", "values": [{"measurement": "Enzyme % Activity (relative to DMSO controls) Data 1", "setting": "ASH1L; [2]", "value": 3.42, "unit": "%"}, {"measurement": "Enzyme % Activity (relative to DMSO controls) Data 2", "setting": "ASH1L; [2]", "value": 4.17, "unit": "%"}, {"measurement": "inhibition relative to DMSO controls", "setting": "ASH1L; summary of Table 1", "value": "at least 7500"}, {"measurement": "Enzyme % Activity (relative to DMSO controls) Data 1", "setting": "EZH2(Y641F) Complex", "value": 102.54, "unit": "%"}, {"measurement": "Enzyme % Activity (relative to DMSO controls) Data 2", "setting": "EZH2(Y641F) Complex", "value": 102.95, "unit": "%"}, {"measurement": "remaining activity at 20 µM", "setting": "NSD2 (E1099K); read-out: Enzyme % Activity (relative to DMSO controls) Data 1", "value": 32.3, "unit": "%"}, {"measurement": "remaining activity at 20 µM", "setting": "NSD2 (E1099K); read-out: Enzyme % Activity (relative to DMSO controls) Data 2", "value": 32.7, "unit": "%"}, {"measurement": "inhibition relative to DMSO controls", "setting": "NSD2 (E1099K); summary of Table 1", "value": "at least 7500"}, {"measurement": "6E10", "setting": "6E10", "value": "significant decrease"}, {"measurement": "pathways of learning, cognition, quantity of neurons, dendritic growth and branching (IPA)", "setting": "[1]; AD+ mice", "value": "significantly activated"}, {"measurement": "Mapt protein upregulation", "setting": "[1]; AD+ mice, p=0.0188", "value": 2.4, "unit": "fold"}, {"measurement": "Gfra2 protein", "setting": "[1]; ETP69-treated mice, p=0.0056", "value": "significantly increased"}, {"measurement": "Lrrn4 protein upregulation", "setting": "[1]; ETP69-treated versus DMSO-control AD+ mice, p=0.015", "value": 1.73, "unit": "fold"}, {"measurement": "brain neurotrophic factors (NTFs) expression including BDNF, VGF and levodopa", "setting": "[1]; proteome signatures", "value": "induced"}]}]}
